Experimental data published in patent US20230097801A1, “METHODS OF INCREASING CELL PHAGOCYTOSIS” (National Health Research Institutes, priority 2021, published 2023).

Assays:
CD47 [1] = assay: Flow cytometry, anti-human CD47 CC2C6 antibody binding on SK-OV-3 cell surface; format: cell-based; conditions: for inhibition of binding of anti-human CD47 antibody CC2C6 (in words): SK-OV-3 cells; for IC50: Ovarian Cancer (SK-OV3 cells), 4 days treatment, read-out: IC50, inhibition of CC2C6 binding
Protocol: (§1) Binding between CD47 and SIRPα was studied by measuring the level of CD47 binding using any suitable method. Flow cytometric analysis is useful to quantify the level of binding of CD47 to antibody CC2C6, which is then subjected to an immune-staining procedure using fluorochrome-conjugated secondary antibody followed by analysis of the immune-staining signal with a flow cytometry instrument to obtain the level of the CD47-CC2C6 binding. In another method, analysis of CD47 is performed using SIRPα-Fc formed from SIRPα fused with human IgG1, which is then subjected to an immune-staining procedure using fluorochrome-conjugated secondary antibody against human IgG1, followed by analysis of the immune-staining signal. SIRPα is expressed on the surface of a myeloid cell such as macrophage, monocyte, neutrophil, or dendritic cell. Alternatively, SIRPα is fused with human IgG1 to form a SIRPα-Fc recombinant protein. […] An anti-cancer agent (e.g., rituximab) can be used together with a compound of formula (I). Useful anti-cancer agents are described above including anti-PD-L1 antibodies, anti-CD20 antibodies, anti-HER2 antibodies, anti-EGFR antibodies, and anti-CD47 antibodies. Other suitable anti-cancer agents are chemotherapeutic agents such as doxorubicin, epirubicin, idarubicin, methotrexate, mitoxantrone, oxaliplatin, and cyclophosphamide.
SK-OV-3 cells were purchased from ATCC (Manassas, Va.). SK-OV-3 cells were maintained at 37° C. under 5% CO2 in McCoy's 5a medium (Gibco, ThermoFisher, Waltham, Mass.) with 10% fetal bovine serum (FBS) (Sigma-Aldrich, St Louis, Mo.), and 2 mM L-glutamine.
(§2) Antibody conjugates and extracellular domain of SIRPα used to analyze cell surface CD47 binding include anti-human CD47 CC2C6, 2D3, recombinant human SIRPα/CD172a Fc chimer protein, and anti-human IgG Fc. To determine inhibition of CD47 binding, cancer cells were treated with compounds of formula (I) at various concentrations for 4 days. Thereafter, the cells were washed with PBS containing 0.5% BSA (FACS buffer) followed by incubation with fluorochrome-labeled antibodies to human CD47 (i.e., CC2C6 and 2D3) at 1:50 dilution in FACS buffer for 30 minutes at 4° C. Compounds of formula (I) produced a dose-dependent inhibition of anti-CD47 CC2C6 antibody that recognized CD47 and SIRPα binding site on the tumor cell surface including B-cell lymphoma Raji cells, colon cancer cells DLD-1, and ovarian cancer SK-OV-3 cells (see FIGS. 1A, 1B, and 1C, respectively).

CD47 [2] = assay: Flow cytometry, anti-human CD47 2D3 control antibody binding on Raji cell surface; format: cell-based; conditions: Raji cells
Protocol: as §2

CD47 [3] = assay: Flow cytometry, anti-human CD47 CC2C6 antibody binding on DLD-1 cell surface; format: cell-based; conditions: for IC50: Colon Cancer (DLD-1 cells), 4 days treatment, read-out: IC50, inhibition of CC2C6 binding; for inhibition of binding of anti-human CD47 antibody CC2C6 (in words): DLD-1 cells
Protocol: as §1
Human colon cancer DLD-1 cells were obtained from NHRI IBPR HTS Lab, Taiwan. DLD-1 cells were maintained under the same conditions described immediately above.
as §2

CD47 [4] = assay: Flow cytometry, anti-human CD47 CC2C6 antibody binding on Raji cell surface; format: cell-based; conditions: for IC50: B-cell Lymphoma (Raji cells), 4 days treatment, read-out: IC50, inhibition of CC2C6 binding; for inhibition of binding of anti-human CD47 antibody CC2C6 (in words): Raji cells
Protocol: as §1
Human B-cell lymphoma Raji cells were purchased from BCRC, Taiwan. Raji cells were maintained at 37° C. under 5% CO2 in RPMI-1640 medium (Hyclone, Marlborough, Mass.) supplemented with 10% fetal bovine serum (FBS) (SAFC, Sigma-Aldrich, St. Louis, Mo.) containing 2 mM L-glutamine (Hyclone, Marlborough, Mass.), 10 mM HEPES (Hyclone, Marlborough, Mass.) and 1 mM sodium pyruvate (Hyclone, Marlborough, Mass.).
as §2

Mouse pk profiles = format: in vivo; conditions: for clearance / Cmax / bioavailability / half-life: plasma; for bioavailability: PO (30 mg/kg) vs IV (2 mg/kg); for half-life: read-out: T1/2 (h) Plasma (converted)
[5] = system: human B-cell lymphoma Raji xenograft tumor; assay: Raji xenograft dose-dependent efficacy of Compound 34 with rituximab (6 weeks); format: in vivo, NOD/SCID mice; conditions: rituximab 10 mg/kg alone
Text: (§3) Human B-cell lymphoma Raji cells were used to evaluate the efficacy of Compound 34 and rituximab in treating cancer cells. Prior to injection into animals, the cancer cells were detected as free of Mycoplasma spp. NOD/SCID mice (BioLasco, Taiwan) were used for in vivo experiments due to their higher affinity of SIRPα to human CD47. The mice used in these studies were housed in Institutional Animal Care and Use Committees-approved facility at National Health Research Institutes in accordance with guidelines for the care and use of laboratory animals.
To evaluate dose-dependent anti-tumor efficacy of Compound 34 in combination with rituximab, mice were treated with vehicle control, rituximab, or rituximab in combination with Compound 34 for 6 weeks. A dosing vehicle for Compound 34 was prepared using 10% DMA: 40% PEG400: 50% (1% CMC) (v/v/v) and was dosed orally (p.o.) at 10 mg/kg, 30 mg/kg, and 100 mg/kg once a day, 5 days a week (Q.D.*5). Rituximab (Roche-Genentech, South San Francisco, Calif.) stock solution was diluted with PBS and dosed at 10 mg/kg twice a week (2QW) by intraperitoneal (i.p.) injection. Cancer growth was measured by volume with an electronic caliper. The volume was calculated as L×W^2/2, in which L is the length of the tumor and W is its width. Tumor size and animal body weight were measured once a week after cancer cell inoculation. Cancer response at the end of the study was calculated as tumor growth inhibition (TGI) using (1−T/C)*100, in which T is the mean tumor volume (mm^3) of the test group, and C is the mean tumor volume (mm^3) of the vehicle-treated group. The treatment response rate were classified into 4 categories: complete regression (CR), in which the tumor was undetectable at the end of study; partial regression (PR), in which the tumor volume was less than or equal to 30% of the initial tumor volume at the end of study; stable disease (SD), in which the tumor volume was between […] of the initial tumor volume at the end of study; progression disease (PD), in which the tumor volume was greater than 50% of the initial tumor volume at the end of study. An overall response rate (ORR) is calculated based on the CR and PR groups. […] When treated with Compound 34 (at 100 mg/kg) in combination with rituximab, 6 out of 10 mice (60%) fell under the CR group, and 1 out of 10 mice (10%) fell under the PR group. On the other hand, no animals had CR (0%) and only 2 out of 10 mice (20%) were PR by rituximab (at 10 mg/kg), resulting in 70% ORR by the combination treatment and 20% by antibody only.

[6] = system: human B-cell lymphoma Raji xenograft tumor; assay: Raji xenograft anti-tumor efficacy and survival study (3 weeks treatment); format: in vivo, NOD/SCID mice; conditions: Compound 34 100 mg/kg p.o. QD*5, rituximab 10 mg/kg i.p. 2QW
Text: as §3
One million Raji cells in culture medium and matrigel (1:1, v/v) were injected subcutaneously into the left flank region of the mice (n=7 to 10 animals per group). Treatments were initiated after randomization with inclusion of tumors at approximately 100 mm^3. A dosing vehicle for Compound 34 was prepared using 10% DMA: 40% PEG400: 50% (1% CMC) (v/v/v) and was dosed orally (p.o.) at 100 mg/kg once a day, 5 days a week (Q.D.*5). Rituximab (Roche-Genentech, South San Francisco, Calif.) stock solution was diluted with PBS and dosed at 10 mg/kg twice a week (2QW) by intraperitoneal (i.p.) injection.
To evaluate anti-tumor efficacy and survival rates, mice were treated with vehicle control, 10 mg/kg rituximab (2QW, i.p.), 100 mg/kg Compound 34 (QD*5), or rituximab in combination with Compound 34. Treatment was discontinued at the end of 3 weeks. The mice were monitored for cancer growth and body weight once a week. Cancer growth was measured by volume with an electronic caliper. The volume was calculated as L×W^2/2, in which L is the length of the tumor and W is its width. Tumor size and animal body weight were measured once a week after cancer cell inoculation. Cancer response at the end of the study was calculated as tumor growth inhibition (TGI) using (1−T/C)*100, in which T is the mean tumor volume (mm^3) of the test group, and C is the mean tumor volume (mm^3) of the vehicle-treated group. […] For the survival study, treatment was discontinued at the end of 3 weeks. Thereafter, mice were followed up for tumor growth and body weight once a week. The mice were then sacrificed when tumor volume reached 2,000 mm^3 or body weight loss was greater than 10%. Kaplan-Meier plots were used as the study end point to calculate percentage of animals remaining in the study in term of the time. The median survival days for vehicle control and Compound 34 were 15.5 days and 18 days, respectively (FIG. 5E). Rituximab prolonged median survival days to 28 days after treatment discontinued (FIGS. 5C and 5E). Importantly, the combination of rituximab and Compound 34 further prolonged median survival days to 47 days (FIGS. 5D and 5E).

Row | Compound | inhibition of binding of anti-human CD47 antibody CC2C6 (in words) (CD47 [1]) | inhibition of binding of anti-human CD47 antibody 2D3 (in words) (CD47 [2]) | IC50 (CD47 [3]) | inhibition of binding of anti-human CD47 antibody CC2C6 (in words) (CD47 [3]) | IC50 (CD47 [4]) | inhibition of binding of anti-human CD47 antibody CC2C6 (in words) (CD47 [4]) | AUC Plasma (Mouse pk profiles; IV (2 mg/kg)) | AUC Plasma (Mouse pk profiles; PO (30 mg/kg)) | clearance (Mouse pk profiles; IV (2 mg/kg)) | Cmax (Mouse pk profiles; PO (30 mg/kg)) | bioavailability (Mouse pk profiles) | half-life (Mouse pk profiles; PO (30 mg/kg)) | IC50 (CD47 [1]) | further results
1 | O=C1NC[C@H](c2ccc(-c3cnc(C(F)(F)F)s3)cc2)N1c1ccc2[nH]cnc2c1 [Compound 30] | effectively inhibited | did not inhibit | 1010 nM | effectively inhibited | 840 nM | effectively inhibited | 3037 ng·h/g | 21170 ng·h/g | 12.7 mL/min/kg | 1780 ng/mL | 47% | 5.2 h |  | 
2 | Rituximab: an anti-human CD20 antibody (Roche-Genentech) |  |  |  |  |  |  |  |  |  |  |  |  |  | CR (complete regression), rate [5]: 0 (0%); ORR (overall response rate, CR and PR), rate [5]: 20%; PD (progression disease), rate [5]: 80%; PR (partial regression), rate [5]: 20%; CR (complete regression), number of mice ([5]; of 10 mice): 0 (0%); ORR (overall response rate, CR and PR), number of mice ([5]; of 10 mice): 2; PD (progression disease), number of mice ([5]; of 10 mice): 8; PR (partial regression), number of mice ([5]; of 10 mice): 2; CR (complete regression), rate ([5]; listed as rituximab): 0%; tumor growth inhibition (TGI, % of control) ([6]; 3 weeks): 78.5%; median survival days ([6]; treatment discontinued at 3 weeks): 28 days
3 | CCCOc1ccc([C@H]2CNC(=O)N2c2ccc3[nH]cnc3c2)cc1 [PQ912, reference compound] |  |  | 3190 nM |  | 5950 nM |  | 520 ng·h/g | 6359 ng·h/g | 64 mL/min/kg | 2020 ng/mL | 82% | 2.8 h | 150 nM | 
4 | O=C1NC[C@H](c2ccc(-c3csc(C(F)(F)F)c3)cc2)N1c1ccc2[nH]cnc2c1 [Compound 32] | effectively inhibited | did not inhibit | 790 nM | effectively inhibited | 1380 nM | effectively inhibited | 8185 ng·h/g | 68659 ng·h/g | 4 mL/min/kg | 3720 ng/mL | 56% | 12.7 h | 200 nM | 
